Test results from PubChem BioAssay AID1845211 (Molecular Pharmacology Branch, DTP, NCI, 2023).

System: NCI-H322M multicellular tumor spheroids, viability (% test/control)
Assay: Anticancer human tumor NCI-H322M cell line growth inhibition;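 as to viability, T/C: spheroids exposed to compound for seven days before readout; 100% = DMSO vehicle control wells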
Settings: for IC50: curve of first compound; for viability, T/C: stronger effect = lower value
Text: Multicellular complex tumor spheroid response to DNA repair inhibitors in combination with DNA-damaging drugs
This study explores the anticancer activities of DNA-damaging drugs and inhibitors of DNA damage repair, both as single agents and in combinations. Complex tumor spheroids comprised of malignant cells, endothelial cells and mesenchymal stem cells served as an in vitro model for human solid tumors. This model system incorporates physiologically relevant features and patient-derived or established malignant cell lines with clinically relevant genetic alterations from many tumor types. Twenty-six patient-derived or established malignant cell lines were evaluated representing sarcoma, melanoma, small cell lung cancer (SCLC), non-small cell lung cancer (NSCLC), as well as bladder, ovarian and pancreatic cancers. The concentration ranges selected for each drug and investigational agent were based upon clinically achievable concentrations if the clinical Cmax of the agent was known.
Compounds. The drugs and compounds olaparib (NSC753686), talazoparib (NSC767125), berzosertib (NSC777718), elimusertib (NSC800525), nedisertib (NSC802822), VX-984 (NSC792969), AZD-1390 (NSC803789), temozolomide (NSC362856), topotecan (NSC609699), trabectedin (NSC813783), staurosporine (NSC755774), and gemcitabine (NSC613327) were obtained from the National Cancer Institute (NCI) Developmental Therapeutics Program Chemical Repository. The FDA-approved anticancer drug set is available from the Developmental Therapeutics Program at https://dtp.cancer.gov/organization/dscb/obtaining/available_plates.htm. […] The stock solutions were prepared in dimethyl sulfoxide (DMSO, Sigma-Aldrich, St. Louis, MO, cat. D2650) at 400-fold the tested concentration and stored at -70 degrees C. Prior to their use, the stock solutions were diluted in fresh medium and the final DMSO concentration in the assay was 0.25% (v/v). All drugs and investigational agents were tested over a range starting from a high concentration at or near the clinical Cmax and decreasing in half-log increments. If the clinical Cmax for an agent had not been determined, the highest concentration tested was 10 microM.
Cell Lines. The patient-derived cancer cell (PDC) lines: 156681-154-R-J1-PDC, 283228-195-R-J1-PDC, 287954-098-R-J1-PDC, 292921-168-R-J2-PDC, 349418-098-R-PDC, 425362-245-T-J1-PDC, 556581-035-R-J1-PDC, and BL0293-F563-PDC were received from the NCI Patient-Derived Models Repository (PDMR, https://pdmr.cancer.gov). The established cell lines HS-SY-2 (RRID:CVCL_8719), MPNST, and SYO-1 (RRID:CVCL_7146) were obtained from the Sloan Kettering Institute. The alveolar soft parts sarcoma cell line ASPS-1 (RRID:CVCL_S738) was established at the NCI and grown from internal seed stocks. The following established cell lines were purchased from the American Type Culture Collection (ATCC, Manassas, VA): G-401 (ATCC, cat. CRL-1441, RRID:CVCL_0270), SW982 (ATCC, cat. HTB-93, RRID:CVCL_1734), VA-ES-BJ (ATCC, cat. CRL-2138, RRID:CVCL_1785), NCI-H719 (ATCC, cat. CRL-5837, RRID:CVCL_1582), NCI-H196 (ATCC, cat. CRL-5823, RRID:CVCL_1509), NCI-H841 (ATCC, cat. CRL-5845, RRID:CVCL_1595), NCI-H1618 (ATCC, cat. CRL-5879, RRID:CVCL_1480), NCI-H1876 (ATCC, cat. CRL-5902, RRID:CVCL_1503), DMS 114 (ATCC, cat. CRL-2066; RRID:CVCL_1174), NCI-H211 (ATCC, cat. CRL-5824; RRID:CVCL_1529), and SW 1271 (ATCC, cat. CRL-2177, RRID:CVCL_1716). The small cell lung cancer cell line COR-L88 was purchased from Sigma-Aldrich (cat. 92031917-1VL, RRID:CVCL_1141). The non-small cell lung cancer cell lines NCI-H226 (RRID:CVCL_1544) and NCI-H322M (RRID:CVCL_1557) were established at the NCI and grown from internal seed stocks. Pooled donor human umbilical vein endothelial cells (HUVEC, Lonza, cat. CC-2519) and human mesenchymal stem cells (hMSC, Lonza, cat. PT-2501) were purchased from Lonza (Walkersville, MD).
Cell Culture. All cells were maintained in an incubator at 37 degrees C and 5% CO2 with 95% humidity. […]

[1] = second compound 0.003 µM, first compound 0.00949 µM
[2] = second compound 0.003 µM, first compound 0.03 µM
[3] = second compound 0.003 µM, first compound 0.0949 µM
[4] = second compound 0.003 µM, first compound 0.3 µM
[5] = second compound 0.003 µM, first compound 0.949 µM
[6] = second compound 0.003 µM, first compound 3 µM
[7] = second compound 0.00949 µM, first compound 0.00949 µM
[8] = second compound 0.00949 µM, first compound 0.03 µM
[9] = second compound 0.00949 µM, first compound 0.0949 µM
[10] = second compound 0.00949 µM, first compound 0.3 µM
[11] = second compound 0.00949 µM, first compound 0.949 µM
[12] = second compound 0.00949 µM, first compound 3 µM
[13] = second compound 0.03 µM, first compound 0.00949 µM
[14] = second compound 0.03 µM, first compound 0.03 µM
[15] = second compound 0.03 µM, first compound 0.0949 µM
[16] = second compound 0.03 µM, first compound 0.3 µM
[17] = second compound 0.03 µM, first compound 0.949 µM
[18] = second compound 0.03 µM, first compound 3 µM
[19] = second compound 0.0949 µM, first compound 0.00949 µM
[20] = second compound 0.0949 µM, first compound 0.03 µM
[21] = second compound 0.0949 µM, first compound 0.0949 µM
[22] = second compound 0.0949 µM, first compound 0.3 µM
[23] = second compound 0.0949 µM, first compound 0.949 µM
[24] = second compound 0.0949 µM, first compound 3 µM
[25] = second compound 0.3 µM, first compound 0.00949 µM
[26] = second compound 0.3 µM, first compound 0.03 µM
[27] = second compound 0.3 µM, first compound 0.0949 µM
[28] = second compound 0.3 µM, first compound 0.3 µM
[29] = second compound 0.3 µM, first compound 0.949 µM
[30] = second compound 0.3 µM, first compound 3 µM

SMILES	IC50 (second compound 0.003 µM) [µM]	IC50 (second compound 0.00949 µM) [µM]	IC50 (second compound 0.03 µM) [µM]	IC50 (second compound 0.0949 µM) [µM]	IC50 (second compound 0.3 µM) [µM]	viability, T/C [1] [%]	viability, T/C [2] [%]	viability, T/C [3] [%]	viability, T/C [4] [%]	viability, T/C [5] [%]	viability, T/C [6] [%]	viability, T/C [7] [%]	viability, T/C [8] [%]	viability, T/C [9] [%]	viability, T/C [10] [%]	viability, T/C [11] [%]	viability, T/C [12] [%]	viability, T/C [13] [%]	viability, T/C [14] [%]	viability, T/C [15] [%]	further results
CNCc1ccc(-c2cc(-c3nc(-c4ccc(S(=O)(=O)C(C)C)cc4)cnc3N)on2)cc1 + CC[C@@]1(O)C(=O)OCc2c1cc1n(c2=O)Cc2cc3c(CN(C)C)c(O)ccc3nc2-1	> 3	> 3	> 3	> 3	1.47	79.2	93.3	96	79.7	78	85.6	95.3	87.9	83.7	75.4	81.3	85.7	88.4	74.7	85.5	viability, T/C [16]: 69.1%; viability, T/C [17]: 86%; viability, T/C [18]: 86.6%; viability, T/C [19]: 69.3%; viability, T/C [20]: 66%; viability, T/C [21]: 61.3%; viability, T/C [22]: 74.2%; viability, T/C [23]: 59.7%; viability, T/C [24]: 69.1%; viability, T/C [25]: 55.2%; viability, T/C [26]: 56.4%; viability, T/C [27]: 59.1%; viability, T/C [28]: 54.7%; viability, T/C [29]: 51.7%; viability, T/C [30]: 46.2%
Cc1sc2c(c1C)C(c1ccc(Cl)cc1)=NC(CC(=O)Nc1ccc(O)cc1)c1nnc(C)n1-2 (stereo not given) + CC[C@@]1(O)C(=O)OCc2c1cc1n(c2=O)Cc2cc3c(CN(C)C)c(O)ccc3nc2-1	> 3	> 3	> 3	> 3	> 3	105	139	132	134	95.3	76.2	106	112	140	118	79	77.2	107	127	126	viability, T/C [16]: 103%; viability, T/C [17]: 82.2%; viability, T/C [18]: 73.7%; viability, T/C [19]: 90.7%; viability, T/C [20]: 99.1%; viability, T/C [21]: 112%; viability, T/C [22]: 89.2%; viability, T/C [23]: 79.8%; viability, T/C [24]: 64.4%; viability, T/C [25]: 74.5%; viability, T/C [26]: 73.5%; viability, T/C [27]: 90.2%; viability, T/C [28]: 80.5%; viability, T/C [29]: 71%; viability, T/C [30]: 58.1%
Cn1ncnc1[C@H]1c2n[nH]c(=O)c3cc(F)cc(c23)N[C@@H]1c1ccc(F)cc1 + CC[C@@]1(O)C(=O)OCc2c1cc1n(c2=O)Cc2cc3c(CN(C)C)c(O)ccc3nc2-1	> 3	> 3	> 3	1.63	0.00964	84.3	87.1	89.6	71.9	79.6	68.6	85.1	78.2	80.6	73.7	69	70.7	76.6	72.5	78.4	viability, T/C [16]: 70.2%; viability, T/C [17]: 63.7%; viability, T/C [18]: 65%; viability, T/C [19]: 67.4%; viability, T/C [20]: 56.3%; viability, T/C [21]: 59.4%; viability, T/C [22]: 51.5%; viability, T/C [23]: 51.2%; viability, T/C [24]: 50.2%; viability, T/C [25]: 50.8%; viability, T/C [26]: 46.2%; viability, T/C [27]: 49.2%; viability, T/C [28]: 49.9%; viability, T/C [29]: 47%; viability, T/C [30]: 44.1%
